This note sets out measurements from patent publication US20070049593A1 (priority 2004, published 2007).

Where a name gives a salt, the structure may show the parent alone.

The term IC50 denotes the midpoint of a concentration-inhibition curve. The low end stands for higher potency, the high end for lower potency.

The target in the experiment is T1, HCV polymerase (Hepatitis C virus genotype 1b, UniProt P26663).
T1 construct: a region encoding NS5B (J Virol 1991 March, 65(3), 1105-13, 544 amino acids after deletion of 47 amino acids on the C-terminal); 6xHis (C); made in house; host or cells: Escherichia coli
Briefly: biochemical. Also on record: species or system HCV BK strain. A digest of the protocol:
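His-tagged NS5B (BK strain, 47-aa C-terminal deletion, E. coli-expressed) at 0.5 μg/ml copied 5 μg/ml run-off RNA bearing the HCV 3′ UTR with 2 μM UTP plus [3H]UTP, 50 μM ATP/GTP, in pH 7.5 Tris with 5 mM MgCl2, 25 °C, 90 min. TCA-precipitated RNA was counted and IC50 calculated.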

T1 sequence (P26663 2420-2963): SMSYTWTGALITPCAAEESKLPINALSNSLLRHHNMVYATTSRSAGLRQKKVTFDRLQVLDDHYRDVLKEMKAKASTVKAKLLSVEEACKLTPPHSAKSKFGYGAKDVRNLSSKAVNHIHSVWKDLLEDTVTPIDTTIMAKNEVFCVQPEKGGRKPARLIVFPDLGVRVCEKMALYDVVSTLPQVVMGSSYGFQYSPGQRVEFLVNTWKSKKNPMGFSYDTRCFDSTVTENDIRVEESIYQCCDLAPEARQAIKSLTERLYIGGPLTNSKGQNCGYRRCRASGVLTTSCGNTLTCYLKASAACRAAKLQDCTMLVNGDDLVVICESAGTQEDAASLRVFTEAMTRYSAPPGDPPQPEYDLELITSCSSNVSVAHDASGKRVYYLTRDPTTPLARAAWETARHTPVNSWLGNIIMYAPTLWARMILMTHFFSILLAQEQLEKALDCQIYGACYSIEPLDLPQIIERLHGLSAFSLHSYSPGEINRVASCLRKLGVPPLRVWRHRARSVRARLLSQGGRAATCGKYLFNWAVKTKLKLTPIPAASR

In the case of `COc1ccc2c(c1)OCCn1c-2c(C2CCCCC2)c2ccc(C(=O)NC(C)(C)C(=O)Nc3ccc(C(=O)O)cc3)cc21` [Example 2-350, 4-{2-[(12-cyclohexyl-3-methoxy-6,7-dihydro-5-oxa-7a-azadibenzo[a,e]azulene-9-carbonyl)amino]-2-methylpropionylamino}benzoic acid], the IC50 was < 100 nM.
In the case of `CC(C)(NC(=O)c1ccc2c(C3CCCCC3)c3n(c2c1)CCOc1ccccc1-3)c1nc2ccccc2n1CCO` [Example 2-351, N-{1-[1-(2-hydroxyethyl)-1H-benzimidazol-2-yl]-1-methylethyl}-12-cyclohexyl-6,7-dihydro-5-oxa-7a-azadibenzo[a,e]azulene-9-carboxamide], the IC50 is < 100 nM.
On to `COC(=O)[C@H](Cc1cccc(C(F)(F)F)c1)NC(=O)c1ccc2c(C3CCCCC3)c3n(c2c1)CCOc1cc(OC)ccc1-3` [Example 2-352, methyl (S)-2-[(12-cyclohexyl-3-methoxy-6,7-dihydro-5-oxa-7a-azadibenzo[a,e]azulene-9-carbonyl)amino]-3-(3-trifluoromethylphenyl)propionate], for which the IC50 was < 100 nM.
Regarding `COC(=O)C(Cc1cccc(O)c1)NC(=O)c1ccc2c(C3CCCCC3)c3n(c2c1)CCOc1cc(OC)ccc1-3` (stereo not shown) [Example 2-353, methyl 2-[(12-cyclohexyl-3-methoxy-6,7-dihydro-5-oxa-7a-azadibenzo[a,e]azulene-9-carbonyl)amino]-3-(3-hydroxyphenyl)propionate], the IC50 is < 100 nM.
As for `COc1ccc2c(c1)OCCn1c-2c(C2CCCCC2)c2ccc(C(=O)N[C@@H](Cc3cccc(C(F)(F)F)c3)C(=O)O)cc21` [Example 2-354, (S)-2-[(12-cyclohexyl-3-methoxy-6,7-dihydro-5-oxa-7a-azadibenzo[a,e]azulene-9-carbonyl)amino]-3-(3-trifluoromethylphenyl)propionic acid], the IC50 was < 100 nM.
As for `COc1ccc2c(c1)OCCn1c-2c(C2CCCCC2)c2ccc(C(=O)NC(Cc3cccc(O)c3)C(=O)O)cc21` (stereo not shown) [Example 2-355, 2-[(12-cyclohexyl-3-methoxy-6,7-dihydro-5-oxa-7a-azadibenzo[a,e]azulene-9-carbonyl)amino]-3-(3-hydroxyphenyl)propionic acid], the IC50 was < 100 nM.
As for `COC(=O)[C@H](Cc1ccncc1)NC(=O)c1ccc2c(C3CCCCC3)c3n(c2c1)CCOc1cc(OC)ccc1-3` [Example 2-356, methyl (S)-2-[(12-cyclohexyl-3-methoxy-6,7-dihydro-5-oxa-7a-azadibenzo[a,e]azulene-9-carbonyl)amino]-3-(pyridin-4-yl)propionate], the concentration for half-maximal inhibition (IC50) was < 100 nM.
Turning to `O=C(O)c1ccc2c(C3CCCCC3)c3n(c2c1)CCOc1c-3cccc1N(CC(=O)N1CCCOCC1)CC(=O)N1CCCOCC1` [Example 2-357, 4-{bis[2-(1,4-oxazepan-4-yl)-2-oxoethyl]amino}-12-cyclohexyl-6,7-dihydro-5-oxa-7a-azadibenzo[a,e]azulene-9-carboxylic acid], the IC50 is < 100 nM.
As for `CC(C)(NC(=O)c1ccc2c(C3CCCCC3)c3n(c2c1)CCOc1ccccc1-3)C(=O)N1CCC(O)(c2ccc(F)cc2)CC1` [Example 2-358, N-{2-[4-(4-fluorophenyl)-4-hydroxypiperidin-1-yl]-1,1-dimethyl-2-oxoethyl]-12-cyclohexyl-6,7-dihydro-5-oxa-7a-azadibenzo[a,e]azulene-9-carboxamide], the IC50 is < 100 nM.
Turning to `O=C(O)c1ccc2c(C3CCCCC3)c3n(c2c1)CCOc1c-3cccc1N(CC(=O)N1CCOCC1)CC(=O)N1CCOCC1` [Example 2-359, 4-{bis[2-(morpholin-4-yl)-2-oxoethyl]amino}-12-cyclohexyl-6,7-dihydro-5-oxa-7a-azadibenzo[a,e]azulene-9-carboxylic acid], the IC50 is < 100 nM.
Consider `O=C(O)c1ccc2c(C3CCCCC3)c3n(c2c1)CCOc1c-3cccc1N(CCN1CCCOCC1)CCN1CCCOCC1` [Example 2-360, 4-{bis[2-(1,4-oxazepan-4-yl)ethyl]amino}-12-cyclohexyl-6,7-dihydro-5-oxa-7a-azadibenzo[a,e]azulene-9-carboxylic acid trihydrochloride], for which the IC50 was < 100 nM.
On to `O=C(O)c1ccc2c(C3CCCCC3)c3n(c2c1)CCOc1c-3cccc1N(CCN1CCOCC1)CCN1CCOCC1` [Example 2-361, 4-{bis[2-(morpholin-4-yl)ethyl]amino}-12-cyclohexyl-6,7-dihydro-5-oxa-7a-azadibenzo[a,e]azulene-9-carboxylic acid trihydrochloride], for which the IC50 was < 100 nM.
In the case of `COC(=O)Nc1ccc(C[C@H](NC(=O)c2ccc3c(C4CCCCC4)c4n(c3c2)CCOc2cc(OC)ccc2-4)C(=O)OC)cc1` [Example 2-362, methyl (S)-2-[(12-cyclohexyl-3-methoxy-6,7-dihydro-5-oxa-7a-azadibenzo[a,e]azulene-9-carbonyl)amino]-3-(4-methoxycarbonylaminophenyl)propionate], the IC50 was < 100 nM.
For the compound `COC(=O)[C@H](Cc1ccc(O)c(Cl)c1)NC(=O)c1ccc2c(C3CCCCC3)c3n(c2c1)CCOc1cc(OC)ccc1-3` [Example 2-363, methyl (S)-3-(3-chloro-4-hydroxyphenyl)-2-[(12-cyclohexyl-3-methoxy-6,7-dihydro-5-oxa-7a-azadibenzo[a,e]azulene-9-carbonyl)amino]propionate], the 50% inhibitory concentration (IC50) is < 100 nM.
With `COC(=O)Nc1ccc(C[C@H](NC(=O)c2ccc3c(C4CCCCC4)c4n(c3c2)CCOc2cc(OC)ccc2-4)C(=O)O)cc1` [Example 2-364, (S)-2-[(12-cyclohexyl-3-methoxy-6,7-dihydro-5-oxa-7a-azadibenzo[a,e]azulene-9-carbonyl)amino]-3-(4-methoxycarbonylaminophenyl)propionic acid], the IC50 is < 100 nM.
Turning to `COc1ccc2c(c1)OCCn1c-2c(C2CCCCC2)c2ccc(C(=O)N[C@@H](Cc3ccc(O)c(Cl)c3)C(=O)O)cc21` [Example 2-365, (S)-3-(3-chloro-4-hydroxyphenyl)-2-[(12-cyclohexyl-3-methoxy-6,7-dihydro-5-oxa-7a-azadibenzo[a,e]azulene-9-carbonyl)amino]propionic acid], the IC50 was < 100 nM.
For the compound `COC(=O)[C@H](CCc1ccc(O)cc1)NC(=O)c1ccc2c(C3CCCCC3)c3n(c2c1)CCOc1cc(OC)ccc1-3` [Example 2-366, methyl (S)-2-[(12-cyclohexyl-3-methoxy-6,7-dihydro-5-oxa-7a-azadibenzo[a,e]azulene-9-carbonyl)amino]-4-(4-hydroxyphenyl)butyrate], the IC50 is < 100 nM.
`COc1ccc2c(c1)OCCn1c-2c(C2CCCCC2)c2ccc(C(=O)NC(C)(C)c3nc4cc(N(C)C)ccc4[nH]3)cc21` [Example 2-367, N-[1-(5-dimethylamino-1H-benzimidazol-2-yl)-1-methylethyl]-12-cyclohexyl-3-methoxy-6,7-dihydro-5-oxa-7a-azadibenzo[a,e]azulene-9-carboxamide]: the IC50 was < 100 nM.
Next, `COCC(NC(=O)c1ccc2c(C3CCCCC3)c3n(c2c1)CCOc1cc(OC)ccc1-3)C(=O)N1CCC(O)CC1` (stereo not shown) [Example 2-368, N-[2-(4-hydroxypiperidin-1-yl)-1-methoxymethyl-2-oxoethyl]-12-cyclohexyl-3-methoxy-6,7-dihydro-5-oxa-7a-azadibenzo[a,e]azulene-9-carboxamide]: < 100 nM.
Regarding `COc1ccc2c(c1)OCCn1c-2c(C2CCCCC2)c2ccc(C(=O)N[C@@H](Cc3ccc(OCc4ccccc4)cc3)c3nccs3)cc21` [Example 2-369, N—(S)-[2-(4-benzyloxyphenyl)-1-(thiazol-2-yl)ethyl]-12-cyclohexyl-3-methoxy-6,7-dihydro-5-oxa-7a-azadibenzo[a,e]azulene-9-carboxamide], the IC50 was < 100 nM.
On to `COc1ccc2c(c1)OCCn1c-2c(C2CCCCC2)c2ccc(C(=O)NC(C)(C)c3nc4cc(-c5nc(C)no5)ccc4[nH]3)cc21` [Example 2-370, N-(1-methyl-1-[5-(3-methyl-1,2,4-oxadiazol-5-yl)-1H-benzimidazol-2-yl]ethyl}-12-cyclohexyl-3-methoxy-6,7-dihydro-5-oxa-7a-azadibenzo[a,e]azulene-9-carboxamide], for which the IC50 is < 100 nM.
On to `COc1ccc2c(c1)OCCn1c-2c(C2CCCCC2)c2ccc(C(=O)N[C@@H](CCC(N)=O)C(=O)OC(C)(C)C)cc21` [Example 2-371, tert-butyl (S)-4-carbamoyl-2-[(12-cyclohexyl-3-methoxy-6,7-dihydro-5-oxa-7a-azadibenzo[a,e]azulene-9-carbonyl)amino]butyrate], for which the concentration for half-maximal inhibition (IC50) is < 100 nM.
For the compound `COc1ccc2c(c1)OCCn1c-2c(C2CCCCC2)c2ccc(C(=O)N[C@@H](CCC(N)=O)C(=O)O)cc21` [Example 2-372, (S)-4-carbamoyl-2-[(12-cyclohexyl-3-methoxy-6,7-dihydro-5-oxa-7a-azadibenzo[a,e]azulene-9-carbonyl)amino]butyric acid], the IC50 was < 100 nM.
For the compound `COC(=O)[C@H](Cc1ccc(O)cc1)NC(=O)c1ccc2c(C3CCCCC3)c3n(c2c1)CCOc1cc(OC)ccc1-3` [Example 2-373, methyl (S)-2-[(12-cyclohexyl-3-methoxy-6,7-dihydro-5-oxa-7a-azadibenzo[a,e]azulene-9-carbonyl)amino]-3-(4-hydroxyphenyl)propionate], the IC50 is < 100 nM.
`COC(=O)C(Cc1ccc(C(F)(F)F)cc1)NC(=O)c1ccc2c(C3CCCCC3)c3n(c2c1)CCOc1cc(OC)ccc1-3` (stereo not shown) [Example 2-374, methyl 2-[(12-cyclohexyl-3-methoxy-6,7-dihydro-5-oxa-7a-azadibenzo[a,e]azulene-9-carbonyl)amino]-3-(4-trifluoromethylphenyl)propionate]: the IC50 was < 100 nM.
